Results taken from patent publication US9540343B2 (Gilead Sciences, Inc., priority 2011, dated 2017).

Tests used:
in vitro = conditions: human, uninfected MT-4 cells, CC50 (nM), same protocol as Test A, CellTiter-Glo
Outline: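 Cytoprotection read-out: CellTiter-Glo chemiluminescence after 5 days at 37 °C of HIV-IIIb-infected MT-4 cells (m.o.i. 0.003) with compound in 10-point 3-fold dilutions, quadruplicate, 10% FBS. Cytotoxicity (CC50) measured identically without virus.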

HIV-IIIb = assay: Test A: Antiviral assay in MT4 cells; type: cell-based, HIV-1; conditions: Human immunodeficiency virus 1, IIIB, MT4, 120 h, read-out: % inhibition at 2 μM, percent inhibition of virus-induced cell killing, from dose response curve at 2 uM drug; MT-4 cells infected with HIV-IIIb, 5 days, CellTiter-Glo

SMILES | CC50 at 5 days (in vitro) | inhibition at 2 µM (HIV-IIIb)
CCOC(=O)c1nn(CC(=O)N[C@@H](Cc2cc(F)cc(F)c2)c2ncccc2-c2ccc(F)c(C(N)=O)c2)c2c1C1CCC2C1 (stereo partly drawn) [Example 90F, (S)-5-(2-(2-(3,5-difluorophenyl)-1-(2-(4,5,6,7-tetrahydro-3-carboethoxy-4,7-(methano)indazol-1-yl)acetamido)ethyl)pyridin-3-yl)-2-fluorobenzamide] | 34600 nM | 13%
NC(=O)c1cc(-c2cccnc2[C@H](Cc2cc(F)cc(F)c2)NC(=O)Cn2cc(C(F)(F)F)nc2COCc2ccccc2)ccc1F [Example 91B, (S)-5-(2-(1-(2-(2-(benzyloxymethyl)-4-(trifluoromethyl)-1H-imidazol-1-yl)acetamido)-2-(3,5-difluorophenyl)ethyl)pyridin-3-yl)-2-fluorobenzamide] | 22000 nM | 17%
O=C(Cc1c[nH]c2ccc(F)cc12)N[C@@H](Cc1cc(F)cc(F)c1)c1ncccc1-c1cccc(OCc2ccccc2)c1 [Example 92, (S)—N-(1-(3-(3-(benzyloxy)phenyl)pyridin-2-yl)-2-(3,5-difluorophenyl)ethyl)-2-(5-fluoro-1H-indol-3-yl)acetamide] | 10300 nM | 0%
Cc1noc(C)c1-c1cccnc1[C@H](Cc1cc(F)cc(F)c1)NC(=O)Cc1c[nH]c2ccc(F)cc12 [Example 94, N-((1S)-2-(3,5-difluorophenyl)-1-(3-(3,5-dimethylisoxazol-4-yl)pyridin-2-yl)ethyl)-2-(5-fluoro-1H-indol-3-yl)acetamide] | 42000 nM | 3%
N#Cc1cccc(-c2cccnc2[C@H](Cc2cc(F)cc(F)c2)NC(=O)Cn2ccc3ccccc32)c1 [Example 95C, (S)—N-(1-(3-(3-cyanophenyl)pyridin-2-yl)-2-(3,5-difluorophenyl)ethyl)-2-(1H-indol-1-yl)acetamide] | 14600 nM | 14%
NC(=O)c1cc(-c2cccnc2[C@H](Cc2cc(F)cc(F)c2)NC(=O)Cn2nc(C=O)c3c2C2CC(C3)C2)ccc1F [Example 96, (S)-5-(2-(2-(3,5-difluorophenyl)-1-(2-(4,5,6,7-tetrahydro-3-formyl-5,7-(methano)indazol-1-yl)acetamido)ethyl)pyridin-3-yl)-2-fluorobenzamide] | 9620 nM | 104%
O=C(Cn1nc(C(F)F)c2c1C(F)(F)C1CC21)N[C@@H](Cc1cc(F)cc(F)c1)c1ncccc1-c1ccc2cccnc2c1 (stereo partly drawn) [Example 97, (S)—N-(1-(3-(quinoline-7-yl)-pyridin-2-yl)-2-(3,5-difluorophenyl)ethyl)-2-(3-(difluoromethyl)-5,6-dihydro-4,5-(methano)-6,6-difluoro-cyclopenta[c]pyrazol-1(4H)-yl)acetamide] | 33900 nM | 27%
O=C(Cn1nc(C(F)F)c2c1C(F)(F)C1CC21)N[C@@H](Cc1cc(F)cc(F)c1)c1ncccc1-c1ccc(S(=O)(=O)NC2CCCCC2)cc1 (stereo partly drawn) [Example 98, (S)—N-(1-(3-(4-(N-cyclohexylsulfamoyl)phenyl)-pyridin-2-yl)-2-(3,5-difluorophenyl)ethyl)-2-(3-(difluoromethyl)-5,6-dihydro-4,5-(methano)-6,6-difluoro-cyclopenta[c]pyrazol-1(4H)-yl)acetamide] | 18000 nM | 13%
Cc1nnc(-c2cccc(-c3cccnc3[C@H](Cc3cc(F)cc(F)c3)NC(=O)Cc3c[nH]c4ccc(F)cc34)c2)o1 [Example 99, (S)—N-(2-(3,5-difluorophenyl)-1-(3-(3-(5-methyl-1,3,4-oxadiazol-2-yl)phenyl)pyridin-2-yl)ethyl)-2-(5-fluoro-1H-indol-3-yl)acetamide] | > 53200 nM | 0%
CC(C)Oc1ccc(-c2cccnc2[C@H](Cc2cc(F)cc(F)c2)NC(=O)Cn2nc(C(F)(F)F)c3c2CCCC3)cc1 [Example 100, (S)—N-(2-(3,5-difluorophenyl)-1-(3-(4-isopropoxyphenyl)pyridin-2-yl)ethyl)-2-(3-(trifluoromethyl)-4,5,6,7-tetrahydro-1H-indazol-1-yl)acetamide] | 7830 nM | 56%
O=C(Cc1c[nH]c2ccc(F)cc12)N[C@@H](Cc1cc(F)cc(F)c1)c1ncccc1-c1ccc(N2CCCC2)nc1 [Example 101, (S)—N-(2-(3,5-difluorophenyl)-1-(6′-(pyrrolidin-1-yl)-3,3′-bipyridin-2-yl)ethyl)-2-(5-fluoro-1H-indol-3-yl)acetamide] | 12600 nM | 29%
CC(C)Cc1ccc(-c2cccnc2[C@H](Cc2cc(F)cc(F)c2)NC(=O)Cc2c[nH]c3ccc(F)cc23)cc1 [Example 103, (S)—N-(2-(3,5-difluorophenyl)-1-(3-(4-isobutylphenyl)pyridin-2-yl)ethyl)-2-(5-fluoro-1H-indol-3-yl)acetamide] | 5170 nM | 0%
O=C(Cn1nc(C(F)F)c2c1C(F)(F)C1CC21)N[C@@H](Cc1cc(F)cc(F)c1)c1ncccc1-c1ccc2ccncc2c1 (stereo partly drawn) [Example 104, (S)—N-(1-(3-(isoquinolin-7-yl)-pyridin-2-yl)-2-(3,5-difluorophenyl)ethyl)-2-(3-(difluoromethyl)-5,6-dihydro-4,5-(methano)-6,6-difluoro-cyclopenta[c]pyrazol-1(4H)-yl)acetamide] | 15700 nM | 32%
O=C(Cn1nc(C(F)(F)F)c2c1CCCC2)N[C@@H](Cc1cc(F)cc(F)c1)c1ncccc1-c1ccc(S(=O)(=O)N2CCOCC2)cc1 [Example 105, (S)—N-(2-(3,5-difluorophenyl)-1-(3-(4-(morpholinosulfonyl)phenyl)pyridin-2-yl)ethyl)-2-(3-(trifluoromethyl)-4,5,6,7-tetrahydro-1H-indazol-1-yl)acetamide] | 9080 nM | 99%
NC(=O)c1cc(-c2cccnc2[C@H](Cc2cc(F)cc(F)c2)NC(=O)Cn2cc(C(F)(F)F)nc2C2CCCC2)ccc1F [Example 107E, (S)-5-(2-(1-(2-(2-cyclopentyl-4-(trifluoromethyl)-1H-imidazol-1-yl)acetamido)-2-(3,5-difluorophenyl)ethyl)pyridin-3-yl)-2-fluorobenzamide] | 42800 nM | 30%
NC(=O)c1cccc(-c2cccnc2[C@H](Cc2cc(F)cc(F)c2)NC(=O)Cn2ncc3ccccc32)c1 [Example 108, (S)-3-(2-(1-(2-(1H-indazol-1-yl)acetamido)-2-(3,5-difluorophenyl)ethyl)pyridin-3-yl)benzamide] | > 53000 nM | 13%
Cc1ccccc1-c1cccnc1[C@H](Cc1cc(F)cc(F)c1)NC(=O)Cc1c[nH]c2ccc(F)cc12 [Example 109, (S)—N-(2-(3,5-difluorophenyl)-1-(3-o-tolylpyridin-2-yl)ethyl)-2-(5-fluoro-1H-indol-3-yl)acetamide] | 9080 nM | 50%
O=C(Cc1c[nH]c2ccc(F)cc12)N[C@@H](Cc1cc(F)cc(F)c1)c1ncccc1-c1cccc(C(F)(F)F)c1 [Example 110, (S)—N-(2-(3,5-difluorophenyl)-1-(3-(3-(trifluoromethyl)phenyl)pyridin-2-yl)ethyl)-2-(5-fluoro-1H-indol-3-yl)acetamide] | 7610 nM | 6%
O=C(Cc1c[nH]c2ccc(F)cc12)N[C@@H](Cc1cc(F)cc(F)c1)c1ncccc1-c1cnc2ccccc2c1 [Example 111, (S)—N-(2-(3,5-difluorophenyl)-1-(3-(quinolin-3-yl)pyridin-2-yl)ethyl)-2-(5-fluoro-1H-indol-3-yl)acetamide] | 9950 nM | 41%
O=C(Cc1c[nH]c2ccc(O)cc12)N[C@@H](Cc1cc(F)cc(F)c1)c1ncccc1-c1ccc(F)cc1 [Example 113, (S)—N-(2-(3,5-difluorophenyl)-1-(3-(4-fluorophenyl)pyridin-2-yl)ethyl)-2-(5-hydroxy-1H-indol-3-yl)acetamide] | 22300 nM | 78%
O=C(Cn1nc(C(F)F)c2c1C(F)(F)C1CC21)N[C@@H](Cc1cc(F)cc(F)c1)c1ncccc1-c1ccc(NC(=O)NC2CC2)cc1 (stereo partly drawn) [Example 114, (S)—N-(1-(3-(4-(3-cyclopropylureido)phenyl)-pyridin-2-yl)-2-(3,5-difluorophenyl)ethyl)-2-(3-(difluoromethyl)-5,6-dihydro-4,5-(methano)-6,6-difluoro-cyclopenta[c]pyrazol-1(4H)-yl)acetamide] | > 53200 nM | 32%
CCN(CC)S(=O)(=O)c1ccc(-c2cccnc2[C@H](Cc2cc(F)cc(F)c2)NC(=O)Cn2nc(C(F)F)c3c2C(F)(F)C2CC32)cc1 (stereo partly drawn) [Example 116, (S)—N-(1-(3-(4-(N,N-diethylsulfamoyl)phenyl)-pyridin-2-yl)-2-(3,5-difluorophenyl)ethyl)-2-(3-(difluoromethyl)-5,6-dihydro-4,5-(methano)-6,6-difluoro-cyclopenta[c]pyrazol-1(4H)-yl)acetamide] | > 53200 nM | 72%
O=C(Cn1nc(C(F)(F)F)c2c1CCCC2)N[C@@H](Cc1cc(F)cc(F)c1)c1ncccc1-c1cccc(F)c1 [Example 117, (S)—N-(2-(3,5-difluorophenyl)-1-(3-(3-fluorophenyl)pyridin-2-yl)ethyl)-2-(3-(trifluoromethyl)-4,5,6,7-tetrahydro-1H-indazol-1-yl)acetamide] | 8260 nM | 89%
CN(C)S(=O)(=O)c1ccc(-c2cccnc2[C@H](Cc2cc(F)cc(F)c2)NC(=O)Cn2nc(C(F)F)c3c2C(F)(F)C2CC32)cc1 (stereo partly drawn) [Example 119, (S)—N-(1-(3-(4-(N,N-dimethylsulfamoyl)phenyl)-pyridin-2-yl)-2-(3,5-difluorophenyl)ethyl)-2-(3-(difluoromethyl)-5,6-dihydro-4,5-(methano)-6,6-difluoro-cyclopenta[c]pyrazol-1(4H)-yl)acetamide] | > 53200 nM | 48%
